Assay results taken from patent US11731986B2 (Sanford Burnham Prebys Medical Discovery Institute, priority 2017, dated 2023).

Molecular target: T1, human LMPTP-A (Homo sapiens, UniProt P24666)
T1 sequence (P24666 1-158): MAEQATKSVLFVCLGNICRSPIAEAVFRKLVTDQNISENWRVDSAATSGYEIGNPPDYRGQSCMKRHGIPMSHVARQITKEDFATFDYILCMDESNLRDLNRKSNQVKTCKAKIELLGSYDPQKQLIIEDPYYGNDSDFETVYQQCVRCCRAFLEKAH
Test: Enzyme Assay of Inhibition of LMPTP-A (phosphatase assay, OMFP or pNPP substrate)
Assay type: biochemical
Details: Bis-Tris pH 6.0, 37° C.
Method: Phosphatase assays were performed in buffer containing 50 mM Bis-Tris, pH 6.0, 1 mM DTT and 0.01% Triton X-100 at 37° C. For assays conducted with 3-O-methylfluorescein phosphate (OMFP) as substrate, fluorescence was monitored continuously at λex=485 and λem=525 nm. For assays conducted with para-nitrophenylphosphate (pNPP) as substrate, the reaction was stopped by addition of 2× reaction volume of 1 M NaOH, and absorbance was measured at 405 nm. IC50 values of compounds of Formula (I), (II), (III), or (IV) were determined from plots of inhibitor concentration versus percentage of enzyme activity. For inhibitor selectivity assays, each PTP was incubated with either 0.4 mM OMFP or 5 mM pNPP in the presence of 40 μM compound or DMSO. […] For the inhibitor reversibility assay, 50 nM human LMPTP-A was pre-incubated with 10 μM of compound of Formula (I), (II), (III), or (IV) or DMSO for 5 min. The enzyme was diluted 100× in phosphatase assay buffer containing 0.4 mM OMFP and fluorescence was measured at the indicated time points.

## CN1CCC(CCNC(=O)C#Cc2ccc(-c3cc(NCCCN4CCCCC4)c4cnccc4n3)cc2)CC1 [N-(2-(1-methylpiperidin-4-yl)ethyl)-3-(4-(4-((3-(piperidin-1-yl)propyl)amino)-1,6-naphthyridin-2-yl)phenyl)propiolamide]
  IC50: 1000 to 20000 nM

## CN1CCC(CCNC(=O)CCc2ccc(-c3cc(NCCCN4CCCCC4)c4cnccc4n3)cc2)CC1 [N-(2-(1-Methylpiperidin-4-yl)ethyl)-3-(4-(4-(3-(piperidin-1-yl)propylamino)-1,6-naphthyridin-2-yl)phenyl)propanamide]
  IC50: ≤ 1000 nM

## Cn1c(C(=O)NC2CCNCC2)cc2cc(-c3cc(NCCCN4CCCCC4)c4cnccc4n3)ccc21 [1-methyl-5-(4-((3-(piperidin-1-yl)propyl)amino)-1,6-naphthyridin-2-yl)-N-(piperidin-4-yl)-1H-indole-2-carboxamide]
  IC50: ≤ 1000 nM

## CCN(CC)C(=O)CNC(=O)CCc1ccc(-c2cc(NCCCN3CCCCC3)c3cnccc3n2)cc1
  IC50: ≤ 1000 nM

## CN1CCN(CCCNC(=O)c2nc3cc(-c4cc(Nc5ccc(CN6CCCC6)cc5)c5cnccc5n4)ccc3[nH]2)CC1 [N-(3-(4-methylpiperazin-1-yl)propyl)-5-(4-((4-(pyrrolidin-1-ylmethyl)phenyl)amino)-1,6-naphthyridin-2-yl)-1H-benzo[d]imidazole-2-carboxamide]
  IC50: ≥ 20000 nM

## CN1CCC(NC(=O)c2ccc(-c3cc(NCCCN4CCCCC4)c4cnccc4n3)cn2)CC1 [N-(1-methylpiperidin-4-yl)-5-(4-((3-(piperidin-1-yl)propyl)amino)-1,6-naphthyridin-2-yl)picolinamide]
  IC50: 1000 to 20000 nM

## CN1CCCC(CCNC(=O)C#Cc2ccc(-c3cc(NCCCN4CCCCC4)c4cnccc4n3)cc2)CC1 (stereo not drawn)
  IC50: 1000 to 20000 nM

## CCN1CCC(CNC(=O)CCOc2ccc(-c3cc(N(CC)CCCN4CCCCC4)c4cnccc4n3)cc2)CC1 [3-(4-(4-(ethyl(3-(piperidin-1-yl)propyl)amino)-1,6-naphthyridin-2-yl)phenoxy)-N-((1-ethylpiperidin-4-yl)methyl)propanamide]
  IC50: ≥ 20000 nM

## CN1CCC(NC(=O)CCOc2ccc(-c3cc(NCCCN4CCCCC4)c4cnccc4n3)cc2)CC1 [N-(1-methylpiperidin-4-yl)-3-(4-(4-((3-(piperidin-1-yl)propyl)amino)-1,6-naphthyridin-2-yl)phenoxy)propanamide]
  IC50: ≥ 20000 nM

## CCN1CCN(C(=O)c2nc3cc(-c4cc(Nc5ccc(CN6CCCC6)cc5)c5cnccc5n4)ccc3[nH]2)CC1 [(4-ethylpiperazin-1-yl)(5-(4-((4-(pyrrolidin-1-ylmethyl)phenyl)amino)-1,6-naphthyridin-2-yl)-1H-benzo[d]imidazol-2-yl)methanone]
  IC50: ≥ 20000 nM

## CCN(CC)C(=O)CCc1ccc(-c2cc(NC3CCN(C)CC3)c3cnccc3n2)cc1 [N,N-Diethyl-3-(4-(4-(1-methylpiperidin-4-ylamino)-1,6-naphthyridin-2-yl)phenyl)propanamide]
  IC50: ≤ 1000 nM

## O=C(NC1CCNCC1)c1ccc(-c2cc(NCCCN3CCCCC3)c3cnccc3n2)cc1 [4-(4-((3-(piperidin-1-yl)propyl)amino)-1,6-naphthyridin-2-yl)-N-(piperidin-4-yl)benzamide]
  IC50: ≤ 1000 nM

## CN1CCC(N/C(=N\O)c2ccc(-c3cc(NCCCN4CCCCC4)c4cnccc4n3)cc2)CC1
  IC50: 1000 to 20000 nM

## methyl-N-(1-methylpiperidin-4-yl)-5-(4-((3-(piperidin-1-yl)propyl)amino)-1,6-naphthyridin-2-yl)-1H-pyrrolo[3,2-b]pyridine-2-carboxamide
  IC50: 1000 to 20000 nM

## CCN1CCC(CNC(=O)/C=C/c2ccc(-c3cc(NCCCN4CCCCC4)c4cnccc4n3)cc2)CC1 [(E)-N-((1-Ethylpiperidin-4-yl)methyl)-3-(4-(4-(3-(piperidin-1-yl)propylamino)-1,6-naphthyridin-2-yl)phenyl)acrylamide]
  IC50: 1000 to 20000 nM

## CN1CCC(NC(=O)c2ccc(-c3cc(NC4CCNCC4)c4cnccc4n3)cc2)CC1 [N-(1-Methylpiperidin-4-yl)-4-(4-(piperidin-4-ylamino)-1,6-naphthyridin-2-yl)benzamide]
  IC50: 1000 to 20000 nM

## CN1CCN(C(=O)c2cc3ccc(-c4cc(NCCCN5CCCCC5)c5cnccc5n4)cc3s2)CC1 [(4-methylpiperazin-1-yl)(6-(4-(3-(piperidin-1-yl)propylamino)-1,6-naphthyridin-2-yl)benzo[b]thiophen-2-yl)methanone]
  IC50: ≤ 1000 nM

## CCN(CC)C(=O)c1ccc(-c2cc(NCCCN3CCNCC3)c3cnccc3n2)cc1 [N,N-Diethyl-4-(4-((3-(piperazin-1-yl)propyl)amino)-1,6-naphthyridin-2-yl)benzamide]
  IC50: 1000 to 20000 nM

## CCN(CC)C(=O)c1ccc(-c2cc(NCCCN3CCCCC3)c3cnccc3n2)cc1 [N,N-diethyl-4-(4-(3-(piperidin-1-yl)propylamino)-1,6-naphthyridin-2-yl)benzamide]
  IC50: ≤ 1000 nM

## CCN(CC)C(=O)c1ccc(-c2cc(NCCCN3CCCCC3)c3ccncc3n2)cc1 [N,N-diethyl-4-(4-(3-(piperidin-1-yl)propylamino)-1,7-naphthyridin-2-yl)benzamide]
  IC50: ≥ 20000 nM

## Cn1c(C(=O)NC2CCNCC2)cc2cc(-c3cc(NCc4ccc(CN5CCCCC5)cc4)c4cnccc4n3)ccc21 [1-methyl-5-(4-(4-(piperidin-1-ylmethyl)benzylamino)-1,6-naphthyridin-2-yl)-N-(piperidin-4-yl)-1H-indole-2-carboxamide]
  IC50: ≤ 1000 nM

## O=C(NCCCN1CCCCC1)c1ccc(-c2cc(NCc3ccncc3)c3cnccc3n2)cc1 [N-(3-(Piperidin-1-yl)propyl)-4-(4-((pyridin-4-ylmethyl)amino)-1,6-naphthyridin-2-yl)benzamide]
  IC50: 1000 to 20000 nM

## CCNc1cc(-c2ccc3c(c2)cc(C(=O)NC2CCN(C)CC2)n3C)nc2ccncc12 [5-(4-(ethylamino)-1,6-naphthyridin-2-yl)-1-methyl-N-(1-methylpiperidin-4-yl)-1H-indole-2-carboxamide]
  IC50: ≤ 1000 nM

## CCN(CC)C(=O)c1ccc(-c2cc(NCCN3CCCCC3)c3cnccc3n2)cc1 [N,N-Diethyl-4-(4-((2-(piperidin-1-yl)ethyl)amino)-1,6-naphthyridin-2-yl)benzamide]
  IC50: 1000 to 20000 nM

## CN1CCC(NC(=O)/C=C/c2ccc(-c3cc(NCCCN4CCCCC4)c4cnccc4n3)cc2)CC1 [(E)-N-(1-Methylpiperidin-4-yl)-3-(4-(4-(3-(piperidin-1-yl)propylamino)-1,6-naphthyridin-2-yl)phenyl)acrylamide]
  IC50: ≤ 1000 nM

## CCN(CC)C(=O)COCc1ccc(-c2cc(NCCCN3CCCCC3)c3cnccc3n2)cc1 [N,N-diethyl-2-((4-(4-((3-(piperidin-1-yl)propyl)amino)-1,6-naphthyridin-2-yl)benzyl)oxy)acetamide]
  IC50: 1000 to 20000 nM

## CCNC1CCN(C(=O)CCc2ccc(-c3cc(NCCCN4CCCCC4)c4cnccc4n3)cc2)CC1
  IC50: ≤ 1000 nM

## CCN1CCC(NC(=O)c2cc3ccc(-c4cc(NCCCN5CCCCC5)c5cnccc5n4)cc3s2)CC1 [N-(1-ethylpiperidin-4-yl)-6-(4-(3-(piperidin-1-yl)propylamino)-1,6-naphthyridin-2-yl)benzo[b]thiophene-2-carboxamide]
  IC50: ≤ 1000 nM

## CN1CCC(NC(=O)c2cc3cc(-c4cc(Nc5ccc(CN6CCCC6)cc5)c5cnccc5n4)ccc3n2C)CC1 [1-methyl-N-(1-methylpiperidin-4-yl)-5-(4-((4-(pyrrolidin-1-ylmethyl)phenyl)amino)-1,6-naphthyridin-2-yl)-1H-indole-2-carboxamide]
  IC50: ≤ 1000 nM

## CCN(CC)C(=O)c1ccc(-c2cc(NC3CCN(C)CC3)c3cnccc3n2)cc1 [N,N-Diethyl-4-(4-((1-methylpiperidin-4-yl)amino)-1,6-naphthyridin-2-yl)benzamide]
  IC50: 1000 to 20000 nM

## Cn1c(C(=O)NC2CCSCC2)cc2cc(-c3cc(NCCCN4CCCCC4)c4cnccc4n3)ccc21 [1-methyl-5-(4-(3-(piperidin-1-yl)propylamino)-1,6-naphthyridin-2-yl)-N-(tetrahydro-2H-thiopyran-4-yl)-1H-indole-2-carboxamide]
  IC50: ≤ 1000 nM

## CN1CCC(NC(=O)COCc2ccc(-c3cc(NCCCN4CCCCC4)c4cnccc4n3)cc2)CC1 [N-(1-methylpiperidin-4-yl)-2-((4-(4-((3-(piperidin-1-yl)propyl)amino)-1,6-naphthyridin-2-yl)benzyl)oxy)acetamide]
  IC50: ≤ 1000 nM

## CN1CCC(NC(=O)c2ccc(-c3cc(NCCCN4CCCCC4)c4cncc(Br)c4n3)cc2)CC1 [4-(8-Bromo-4-((3-(piperidin-1-yl)propyl)amino)-1,6-naphthyridin-2-yl)-N-(1-methylpiperidin-4-yl)benzamide]
  IC50: ≥ 20000 nM

## CCN(CC)C(=O)c1ccc(-c2cc(NCCCN3CCCCC3)c3cncc(C)c3n2)cc1 [N,N-Diethyl-4-(8-methyl-4-((3-(piperidin-1-yl)propyl)amino)-1,6-naphthyridin-2-yl)benzamide]
  IC50: ≥ 20000 nM

## CCN(CC)C(=O)/C=C/c1ccc(-c2cc(NCCCN3CCCCC3)c3cnccc3n2)o1 [(E)-N,N-Diethyl-3-(5-(4-((3-(piperidin-1-yl)propyl)amino)-1,6-naphthyridin-2-yl)furan-2-yl)acrylamide]
  IC50: 1000 to 20000 nM

## CN1CCC(Nc2cc(-c3ccc(C(=O)NCCCN4CCCCC4)cc3)nc3ccncc23)C1 (stereo not drawn) [4-(4-((1-Methylpyrrolidin-3-yl)amino)-1,6-naphthyridin-2-yl)-N-(3-(piperidin-1-yl)propyl)benzamide]
  IC50: 1000 to 20000 nM
